From patent publication US7772260B2, “Imidazo[2,1-b]-1,3,4-thiadiazole sulfonamides” (Aegera Therapeutics Inc., priority 2001, dated 2010)
Where two headings read alike, the source gives them in different places.

Experiments:
SCG neurons [1] = assay: Protection of SCG neurons from anti-NGF killing; assay type: cell-based, Sprague Dawley rats; details: Rattus norvegicus, Neuron; anti-NGF antibody, serum and NGF free 48 hours, Alamar Blue; +/−1 uM; read-out: IC(50), rescue from anti-NGF killing of SCG neurons
Experimental: Neurotrophins are critical to the growth, development, and survival of small fiber neurons of the PNS. SCG neurons are neurons of the PNS that undergo apoptosis upon NGF withdrawal. In a typical experiment SCG neurons are cultured in the presence of NGF, which induces survival and neurite out-growth. After 5 days the NGF is removed by either the addition of anti-NGF polyclonal antibody (Sigma) or by repeated washings (4 times) with NGF free media, resulting in the apoptosis of up to 90% of the neurons after 48 hours, as measured by MTS staining.
After 4 days the cells were treated with anti-NGF antibody (Sigma). At this time compound was added and the cells were maintained serum and NGF free for 48 hours, at which time viability was assessed using Alamar Blue (Medicorp) staining.

SCG neurons [2] = assay: cells; assay type: cell-based, Sprague Dawley rats; details: Rattus norvegicus, Neuron
Experimental: Taxol™ is regularly used in breast cancer chemotherapy. In cancer cells Taxol™ binds to the cyto-skeletal protein tubulin, thereby inhibiting normal microtubular assembly and inducing cellular apoptosis. Despite its potency as an anti-tumour agent, Taxol™ is also toxic to neurons, inducing dose limiting peripheral neuropathies. The addition of Taxol™ (100 ng/mL) to cultured SCG neurons induces the degradation or loss of upwards of 80% of the neurons.
FIG. 1 illustrates the protection provided by compound 1 (referred to here as AEG3482) against Taxol™ induced killing. PI Sprague Dawley rat SCG neurons were cultured and incubated with NGF (50 ng/mL) for 5 days.

CA II = CA II (Homo sapiens, UniProt P00918); assay: CA II inhibition; assay type: biochemical
Experimental: CA II inhabition was measured using the protocol described by Pocker, Y.'Stone, J. Biochemistry 1967, 6, 668.

[3] = Taxol™ (50 ng/mL), viability 48 hours later, MTS, read-out: IC(50), protection of SCG neurons from Taxol killing
[4] = read-out: IC(50), CA II inhibition

| SMILES | IC50 (CA II; [4]) | IC50 (SCG neurons [2]; [3]) | also measured |
| --- | --- | --- | --- |
| NS(=O)(=O)c1nn2cc(-c3ccccc3F)nc2s1 [Compound 2, 6-(2-Fluorophenyl)imidazo[2,1-b]-1,3,4-thiadiazole-2-sulfonamide] | – | – | IC50 (SCG neurons [1]): 20 µM |
| NS(=O)(=O)c1nn2cc(-c3cccc(F)c3)nc2s1 [Compound 3, 6-(3-Fluorophenyl)imidazo[2,1-b]-1,3,4-thiadiazole-2-sulfonamide] | – | – | IC50 (SCG neurons [1]): 10 µM |
| CCSc1c(F)c(F)c(-c2cn3nc(S(N)(=O)=O)sc3n2)c(F)c1F [Compound 7, 6-(4-Ethylthio-2,3,5,6-tetrafluorophenyl)imidazo[2,1-b]-1,3,4-thiadiazole-2-sulfonamide] | 0.581 µM | 4 µM | – |
| NS(=O)(=O)c1nn2cc(-c3c(F)c(F)c(N4CCOCC4)c(F)c3F)nc2s1 [Compound 9, 6-(4-Morpholino-2,3,5,6-tetrafluorophenyl)imidazo[2,1-b]-1,3,4-thiadiazole-2-sulfonamide] | – | – | IC50 (SCG neurons [1]): 8 µM |
| NS(=O)(=O)c1nn2cc(-c3ccc(Cl)c(Cl)c3)nc2s1 [Compound 11, 6-(3,4-Dichlorophenyl)imidazo[2,1-b]-1,3,4-thiadiazole-2-sulfonamide] | 1.8 µM | 3 µM | – |
| NS(=O)(=O)c1nn2cc(-c3ccc(Br)cc3)nc2s1 [Compound 14, 6-(4-Bromophenyl)-imidazo[2,1-b]-1,3,4-thiadiazole-2-sulfonamide] | 0.198 µM | 5 µM | – |
| COc1ccccc1-c1cn2nc(S(N)(=O)=O)sc2n1 [Compound 15, 6-(2-Methoxyphenyl)imidazo[2,1-b]-1,3,4-thiadiazole-2-sulfonamide] | 0.152 µM | 10 µM | – |
| COc1cccc(-c2cn3nc(S(N)(=O)=O)sc3n2)c1 [Compound 16, 6-(3-Methoxyphenyl)imidazo[2,1-b]-1,3,4-thiadiazole-2-sulfonamide] | 0.15 µM | 5 µM | – |
| COc1ccc(-c2cn3nc(S(N)(=O)=O)sc3n2)cc1 [Compound 17, 6-(4-Methoxyphenyl)imidazo[2,1-b]-1,3,4-thiadiazole-2-sulfonamide] | 0.179 µM | 3 µM | – |
| COc1ccc(-c2cn3nc(S(N)(=O)=O)sc3n2)c(OC)c1 [Compound 19, 6-(2,4-Dimethoxyphenyl)imidazo[2,1-b]-1,3,4-thiadiazole-2-sulfonamide] | 0.373 µM | 15 µM | – |
| NS(=O)(=O)c1nn2cc(-c3ccc4c(c3)OCO4)nc2s1 [Compound 20, 6-(1,3-Benzodioxol-5-yl)imidazo[2,1-b]-1,3,4-thiadiazole-2-sulfonamide] | 0.404 µM | 15 µM | – |
| NS(=O)(=O)c1nn2cc(-c3ccc(O)c(O)c3)nc2s1 [Compound 22] | 0.153 µM | 25 µM | – |
| NS(=O)(=O)c1nn2cc(-c3ccc4c(c3)OC3(CCCCC3)O4)nc2s1 [Compound 23, 6-(2-spiro(cyclohexyl)benzo-1,3-dioxol-5-yl)imidazo[2,1,-b]-1,3,4-thiadiazole-2-sulfonamide] | – | – | IC50 (SCG neurons [1]): 25 µM |
| NS(=O)(=O)c1nn2cc(-c3cccc(OC(F)(F)F)c3)nc2s1 [Compound 24, 6-(3-trifloromethoxyphenyl)imidazo[2,1-b]-1,3,4-thiadiazole-2-sulfonamide] | 0.613 µM | 7 µM | – |
| COc1cc(-c2cn3nc(S(N)(=O)=O)sc3n2)ccc1OCCO [Compound 34] | – | – | IC50 (SCG neurons [1]): > 30 µM |
| COc1cc(-c2cn3nc(S(N)(=O)=O)sc3n2)ccc1OCCOCc1ccccc1 [Compound 35] | – | – | IC50 (SCG neurons [1]): > 30 µM |
| NS(=O)(=O)c1nn2cc(-c3cccc([N+](=O)[O-])c3)nc2s1 [Compound 37, 6-(3-Nitrophenyl)imidazo[2,1-b]-1,3,4-thiadiazole-2-sulfonamide] | 0.199 µM | 10 µM | – |
| NS(=O)(=O)c1nn2cc(-c3ccc(Cl)c([N+](=O)[O-])c3)nc2s1 [Compound 38, 6-(3-nitro-4-chlorophenyl)imidazo[2,1-b]-1,3,4-thiadiazole-2-sulfonamide] | 0.577 µM | 3 µM | – |
| N#Cc1ccc(-c2cn3nc(S(N)(=O)=O)sc3n2)cc1 [Compound 42, 6-(4-cyanophenyl)imidazo[2,1-b]-1,3,4-thiadiazole-2-sulfonamide] | 0.272 µM | 3 µM | – |
| CS(=O)(=O)c1ccc(-c2cn3nc(S(N)(=O)=O)sc3n2)cc1 [Compound 43, 6-(4-(methylsulfonyl)phenyl)imidazo[2,1-b]-1,3,4-thiadiazole-2-sulfonamide] | 0.886 µM | – | – |
| CCN(CC)S(=O)(=O)c1ccc(-c2cn3nc(S(N)(=O)=O)sc3n2)cc1 [Compound 45] | 0.166 µM | – | – |
| Cc1ccc(-c2cn3nc(S(N)(=O)=O)sc3n2)cc1 [Compound 47, 6-(4-Methylphenyl)imidazo[2,1-b]-1,3,4-thiadiazole-2-sulfonamide] | 0.361 µM | 6 µM | – |
| Cc1ccc(-c2cn3nc(S(N)(=O)=O)sc3n2)c(C)c1 [Compound 48, 6-(2,4-dimethylphenyl)imidazo[2,1-b]-1,3,4-thiadiazole-2-sulfonamide] | 0.288 µM | 5 µM | – |
| CC(C)(C)c1ccc(-c2cn3nc(S(N)(=O)=O)sc3n2)cc1 [Compound 49, 6-(4-tert-butylphenyl)imidazo[2,1-b]-1,3,4-thiadiazole-2-sulfonamide] | 0.466 µM | 5 µM | – |
| CC(C)(C)c1cc(-c2cn3nc(S(N)(=O)=O)sc3n2)c2c(c1)C(C)(C)CC2 [Compound 50] | 0.938 µM | 7 µM | – |
| NS(=O)(=O)c1nn2cc(-c3ccccn3)nc2s1 [Compound 105, 6-(2-Pyridyl)imidazo[2,1-b]-1,3,4-thiadiazole-2-sulfonamide] | 0.15 µM | 7 µM | – |
| CNS(=O)(=O)c1nn2cc(-c3ccccc3)nc2s1 [Compound 137, 6-Phenyl-imidazo[2,1-b]-1,3,4-thiadiazole-2-N-methylsulfonamide] | – | 10 µM | IC50 (SCG neurons [2]; read-out: IC(50) against Taxol killing of SCGs): 7 µM; decrease in CAII activity relative to compound 1 (CA II; compound 137 versus compound 1): 100 fold; IC50 (CA II; read-out: CAII(50) / CAII IC(50)): 2.06 µM |

More lines, main results first:

| IC50 (CA II; [4]) | SMILES | IC50 (SCG neurons [2]; [3]) | also measured |
| --- | --- | --- | --- |
| 0.217 µM | NS(=O)(=O)c1nn2cc(-c3ccc(F)cc3)nc2s1 [Compound 4, 6-(4-Fluorophenyl)imidazo[2,1-b]-1,3,4-thiadiazole-2-sulfonamide] | 5 µM | – |
| 0.192 µM | NS(=O)(=O)c1nn2cc(-c3ccc(F)c(F)c3)nc2s1 [Compound 5, 6-(3,4-Difluorophenyl)imidazo[2,1-b]-1,3,4-thiadiazole-2-sulfonamide] | 5 µM | – |
| 0.164 µM | NS(=O)(=O)c1nn2cc(-c3c(F)c(F)c(F)c(F)c3F)nc2s1 [Compound 6, 6-(2,3,4,5,6-Pentafluorophenyl)imidazo[2,1-b]-1,3,4-thiadiazole-2-sulfonamide] | 3 µM | – |
| 1.47 µM | NS(=O)(=O)c1nn2cc(-c3c(F)c(F)c(SCc4ccccc4)c(F)c3F)nc2s1 [Compound 8, 6-(4-Benzylthio-2,3,5,6-tetrafluorophenyl)imidazo[2,1-b]-1,3,4-thiadiazole-2-sulfonamide] | 5 µM | – |
| 1.59 µM | NS(=O)(=O)c1nn2cc(-c3ccc(Cl)c(Cl)c3Cl)nc2s1 [Compound 12, 6-(2,3,4-trichlorophenyl)imidazo[2,1-b]-1,3,4-thiadiazole-2-sulfonamide] | 5 µM | – |
| 4.05 µM | NS(=O)(=O)c1nn2cc(-c3cccc(Br)c3)nc2s1 [Compound 13, 6-(3-bromophenyl)imidazo[2,1-b]-1,3,4-thiadiazole-2-sulfonamide] | 7 µM | – |
| 0.337 µM | COc1ccc(OC)c(-c2cn3nc(S(N)(=O)=O)sc3n2)c1 [Compound 18, 6-(2,5-Dimethoxyphenyl)imidazo[2,1-b]-1,3,4-thiadiazole-2-sulfonamide] | 20 µM | – |
| 0.302 µM | NS(=O)(=O)c1nn2cc(-c3ccc(OC(F)(F)F)cc3)nc2s1 [Compound 25, 6-(4-trifloromethoxyphenyl)imidazo[2,1-b]-1,3,4-thiadiazole-2-sulfonamide] | 5 µM | – |
| 0.346 µM | N#Cc1cccc(-c2cn3nc(S(N)(=O)=O)sc3n2)c1 [Compound 41, 6-(3-cyanophenyl)imidazo[2,1-b]-1,3,4-thiadiazole-2-sulfonamide] | 3 µM | – |
| 0.601 µM | CCCCCc1ccc(-c2cn3nc(S(N)(=O)=O)sc3n2)cc1 [Compound 46, 6-(4-Pentylphenyl)imidazo[2,1-b]-1,3,4-thiadiazole-2-sulfonamide] | 7 µM | – |
| 11.3 µM | CN(C)S(=O)(=O)c1nn2cc(-c3ccccc3)nc2s1 [Compound 139, 6-Phenyl-imidazo[2,1-b]-1,3,4-thiadiazole-2-N,N-dimethylsulfonamide] | 10 µM | – |
| 60.3 µM | CCCCN(CCCC)S(=O)(=O)c1nn2cc(-c3cccc(OC)c3)nc2s1 [Compound 142, 6-(3-Methoxyphenyl)imidazo[2,1-b]-1,3,4-thiadiazole-2-N,N-dibutylsulfonamide] | > 30 µM | – |
